The values below come from US20100278925A1, “FORMULATIONS OF ORGANO-PLATINIC COMPOUNDS IN THE PRESENCE OF ASSOCIATIVE POLYMERS, PRODUCTS THUS OBTAINED AND USES THEREOF” (Coatex S.A. S., priority 2007, published 2010).

This data set can be described thus: Reference tests: oxaliplatin added into water without polymer or with non-associative polymer. The note with it: oxaliplatin 10.5 g/L in water, pH 7, without polymer. The class given is physicochemical. The text has this:
This test is a reference which consists of adding the oxaliplatin into water, without the associative water-soluble polymer.
This test is a reference which consists of adding the oxaliplatin into water, […].
Next, 1.9 g of a water-soluble polymer with 30% solids content, said polymer being made up 36.9% by weight of methacrylic acid and 63.1% by weight of ethyl acrylate.

With `O=C1[O][Pt]2([NH][C@@H]3CCCC[C@H]3[NH]2)[O]C1=O` [oxaliplatin], the “Appearance of the result” value was “powder suspended in the water”.
